According to patent publication US20250081967A1, “PESTICIDALLY ACTIVE HETEROCYCLIC DERIVATIVES WITH SULFOXIMINE CONTAINING SUBSTITUENTS” (SYNGENTA CROP PROTECTION AG, priority 2021, published 2025):

Key:
Assay type in all cases: in vivo
Myzus persicae [1] = assay: Activity against Myzus persicae (green peach aphid), systemic activity, pea seedlings; conditions: Myzus persicae, 144 h, test rate 24 ppm; systemic; 6 days after placing seedlings in test solutions
Procedure: Example B5: Activity Against Myzus persicae (Green Peach Aphid) Systemic Activity
Roots of pea seedlings infested with an aphid population of mixed ages were placed directly in the aqueous test solutions prepared from 10′000 DMSO stock solutions. The samples were assessed for mortality 6 days after placing seedlings in test solutions.

Myzus persicae [2] = assay: Activity against Myzus persicae (green peach aphid), feeding/contact activity, sunflower leaf discs; conditions: Myzus persicae, foliar; for mortality at 200 ppm: 144 h, application rate 200 ppm, feeding/contact, 6 days after infestation
Procedure: Example B4: Activity Against Myzus persicae (Green Peach Aphid) Feeding/Contact Activity
Sunflower leaf discs were placed on agar in a 24-well microtiter plate and sprayed with aqueous test solutions prepared from 10′000 ppm DMSO stock solutions. After drying, the leaf discs were infested with an aphid population of mixed ages. The samples were assessed for mortality 6 days after infestation.

Diabrotica balteata = assay: Activity against Diabrotica balteata (corn root worm), maize sprouts; conditions: for percent effect (mortality or growth inhibition) at 200 ppm: 96 h, application rate 200 ppm, L2 larvae, 4 days after infestation, read-out: effect in at least one of the two categories (mortality or growth inhibition)
Procedure: Example B3: Activity Against Diabrotica Balteata (Corn Root Worm)
Maize sprouts placed onto an agar layer in 24-well microtiter plates were treated with aqueous test solutions prepared from 10′000 ppm DMSO stock solutions by spraying. After drying, the plates were infested with L2 larvae (6 to 10 per well). The samples were assessed for mortality and growth inhibition in comparison to untreated samples 4 days after infestation.

Bemisia tabaci = assay: Activity against Bemisia tabaci (cotton white fly), cotton leaf discs; conditions: for mortality at 200 ppm / mortality at 12.5 ppm: foliar; for mortality at 200 ppm: 144 h, application rate 200 ppm, adult white flies, 6 days after incubation
Procedure: Example B6: Activity Against Bemisia tabaci (Cotton White Fly)
Cotton leaf discs were placed on agar in 24-well microtiter plates and sprayed with aqueous test solutions prepared from 10′000 ppm DMSO stock solutions. After drying the leaf discs were infested with adult white flies. The samples were checked for mortality 6 days after incubation.

Plutella xylostella = assay: Activity against Plutella xylostella (diamond back moth), artificial diet, eggs; conditions: 192 h, application rate 200 ppm, 8 days after infestation, read-out: effect in at least one of the two categories (mortality or growth inhibition)
Procedure: Example B9: Activity Against Plutella xylostella (Diamond Back Moth)
24-well microtiter plates with artificial diet were treated with aqueous test solutions prepared from 10′000 ppm DMSO stock solutions by pipetting. After drying, Plutella eggs were pipetted through a plastic stencil onto a gel blotting paper and the plate was closed with it. The samples were assessed for mortality and growth inhibition in comparison to untreated samples 8 days after infestation.

Row | SMILES | mortality at 24 ppm (Myzus persicae [1]) | mortality at 200 ppm (Myzus persicae [2]) | mortality at 0.781 ppm (Myzus persicae [2]; Myzus persicae (feeding/contact), concentration 0.781 ppm) | percent effect (mortality or growth inhibition) at 200 ppm (Diabrotica balteata) | mortality at 200 ppm (Bemisia tabaci) | mortality at 12.5 ppm (Bemisia tabaci; concentration 12.5 ppm) | percent effect (mortality or growth inhibition) at 200 ppm (Plutella xylostella) | Mortality (%) (Diabrotica balteata; concentration 50 ppm) | Mortality (%) (Bemisia tabaci; concentration 12.5 ppm) | mortality at 3.125 ppm (Myzus persicae [2]; Myzus persicae (feeding/contact), concentration 3.125 ppm) | mortality at 12.5 ppm (Myzus persicae [2]; Myzus persicae (feeding/contact), concentration 12.5 ppm) | mortality at 50 ppm (Diabrotica balteata; concentration 50 ppm)
1 | CCS(=N)(=O)c1cc(C2(C#N)CC2)cnc1-c1nc2cc(C(F)(F)F)ncc2n1C (single isomer, unassigned) [Compound P10-A, 1-[5-(ethylsulfonimidoyl)-6-[3-methyl-6-(trifluoromethyl)imidazo[4,5-c]pyridin-2-yl]-3-pyridyl]cyclopropanecarbonitrile] | ≥ 80% | ≥ 80% | 80% | ≥ 80% | ≥ 80% | 80% | ≥ 80% | – | – | – | – | –
2 | CCS(=N)(=O)c1cc(OC(C)(C)C#N)c(C)nc1-c1nc2cc(C(F)(F)F)ncc2n1C (single isomer, unassigned) [Compound P17-A, 2-[[5-(ethylsulfonimidoyl)-2-methyl-6-[3-methyl-6-(trifluoromethyl)imidazo[4,5-c]pyridin-2-yl]-3-pyridyl]oxy]-2-methyl-propanenitrile] | ≥ 80% | ≥ 80% | – | ≥ 80% | ≥ 80% | – | ≥ 80% | – | – | – | – | –
3 | CCS(=N)(=O)c1cc(C2(C#N)CC2)ccc1-c1nc2cc(C(F)(F)F)ncc2n1C (single isomer, unassigned) [Compound P18-A, 1-[3-(ethylsulfonimidoyl)-4-[3-methyl-6-(trifluoromethyl)imidazo[4,5-c]pyridin-2-yl]phenyl]cyclopropanecarbonitrile] | ≥ 80% | ≥ 80% | – | ≥ 80% | ≥ 80% | – | ≥ 80% | 100% | 100% | – | – | –
4 | CCS(=N)(=O)c1cc(C(C)(C)C#N)cnc1-c1nc2cc(C(F)(F)F)cnc2n1C (single isomer, unassigned) [Compound P12-A, 2-[5-(ethylsulfonimidoyl)-6-[3-methyl-6-(trifluoromethyl)imidazo[4,5-b]pyridin-2-yl]-3-pyridyl]-2-methyl-propanenitrile] | ≥ 80% | ≥ 80% | – | ≥ 80% | ≥ 80% | – | ≥ 80% | – | – | – | – | –
5 | CCS(=N)(=O)c1cc(C2(C#N)CC2)cnc1-c1nc2cc(C(F)(F)F)cnc2n1C (single isomer, unassigned) [Compound P16-A, 1-[5-(ethylsulfonimidoyl)-6-[3-methyl-6-(trifluoromethyl)imidazo[4,5-b]pyridin-2-yl]-3-pyridyl]cyclopropanecarbonitrile] | ≥ 80% | ≥ 80% | – | ≥ 80% | ≥ 80% | 100% | ≥ 80% | – | – | 100% | – | –
6 | CCS(=N)(=O)c1cc(OC(C)(C)C#N)cnc1-c1nc2cc(C(F)(F)F)ncc2n1C (single isomer, unassigned) [Compound P13-A, 2-[[5-(ethylsulfonimidoyl)-6-[3-methyl-6-(trifluoromethyl)imidazo[4,5-c]pyridin-2-yl]-3-pyridyl]oxy]-2-methyl-propanenitrile] | ≥ 80% | ≥ 80% | – | ≥ 80% | ≥ 80% | – | ≥ 80% | – | – | – | 80% | 80%
